Patent US20240122938A1, “METHODS AND COMPOSITIONS FOR TREATING UVEAL MELANOMA” (INSERM (INSTITUT NATIONAL DE LA SANTÉ ET DE LA RECHERCHE …, priority 2019, published 2024)

Tests used:
[1] = test system: Mel270 uveal melanoma cells; test: Mitochondrial membrane potential by TMRE staining; format: cell-based, human; details: Mel270 cells
Description: (§1) FIG. 1. ABT-263 induces apoptosis of uveal melanoma cells. Detection of the mitochondrial membrane potential using TMRE staining in Mel270 and OMM1 uveal melanoma cells exposed to ABT-263 3 μM or 5 μM for 48 h in the absence or presence of QVD-OPh 20 μM.

[2] = test system: OMM1 uveal melanoma cells; test: Mitochondrial membrane potential by TMRE staining; format: cell-based, human; details: OMM1 cells
Description: as §1

[3] = test system: PARP, caspase 9 and caspase 3 in primary and metastatic uveal melanoma cells; test: Western blot of PARP and caspases; format: cell-based, human; details: pretreatment with pan caspase inhibitor
[4] = test system: ER stress molecules in Mel270 cells; test: Western blot of ER stress molecules; format: cell-based, human
Description: Western blot of ER stress molecules in Mel270 cells treated with ABT-263 5 μM in the absence or presence of QVD-OPh 20 μM. Representative western blot are shown.
(§2) Western blotting was performed as previously described 25,26. Briefly, cell lysates (30 μg) were separated using SDS-PAGE, transferred onto a PVDF membrane and subsequently exposed to the appropriate antibodies, anti-BCL2 (ms-123-PO) was from neomarker, anti-caspase 3 (#610323) was from BD, anti-BAX (#8429) was from sigma, anti-PARP (#9542), anti-BCL-XL (#2762), anti-caspase 9 (#9502) and anti-PUMA (#4976) were from Cell Signaling Technology Inc, anti-MCL1 (#sc-819), anti-NOXA (#56169), and anti-HSP90 (#sc-13119) were from Santa Cruz biotechnology. The proteins were visualized using the ECL system (Amersham).

[5] = test system: panel of human uveal melanoma cell lines; test: Cell death by Annexin V/DAPI staining with qVD; format: cell-based; details: all cell lines
Description: (§3) Cells were seeded at a density of 100 000 cells/well, in 6-well plate and treated with ABT-263 for indicated time. Cells were harvested using accutase enzyme, washed twice with ice-cold phosphate-buffered saline, resuspended in a buffer (Hepes 250 mM, NaCl 150 mM, KCl 5 mM, MgCl2 2 mM, CaCl2) 2 mM) with DAPI (1 μg/ml) and Annexin V-Alexa Fluor 647 conjugate (1/100) and incubated for 15 minutes at room temperature (25° C.) in the dark. Samples were immediately analyzed by a flow cytometer (MACS QUANT) using a laser at 405 nm excitation with a bandpass filter at 425 nm and 475 nm for DAPI detection and a laser at 635 nm excitation with a bandpass filter at 650 nm and 665 nm for Alexa Fluor 647 dye. Annexin and DAPI mono- or double positive cells were counted as dead cells.

Mel270 cells = test: Cell death / alive cells by Annexin V/DAPI FACS; format: cell-based, human; details: GSK2606414 5 μM, 48 h
Description: FIG. 5: PERK dampens ABT-263 killing activity. (A) Q-PCR analysis of PERK level in Mel270 uveal melanoma cells treated with control (siCtl) or PERK (siPERK) siRNA for 48 hr. (B) Mel270 cells were treated with control (siCtl) or PERK (siPERK) siRNA for 48 hrs before being exposed to ABT-263 3 μM for 48 hr. FACS analyses of Annexin V/DAPI double staining in […] indicate alive (white) or dead (early, late apoptosis and necrosis in light grey) cells. (C) Mel270 cells were treated with ABT-263 5 μM or GSK2606414 5 μM alone or in combination for 48 h.
as §3

92.1 cells = test: Cell death / apoptosis; format: cell-based, human; details: data not shown
Description: as §3

[6] = test system: ER stress molecules in metastatic human uveal melanoma cells; test: Western blot of ER stress molecules; format: cell-based; details: OMM1
Description: as §2, with “(Amersham). The western blots shown are representative of at least 3 independent experiments.” for “(Amersham).”

OMM1 cells = test: Cell proliferation assay; format: cell-based, human
Description: (§4) Human uveal melanoma cell lines and short-term cultures derived from different patients with metastatic malignant melanoma cells were grown in DMEM supplemented with 7% FBS at 37° C. in a humidified atmosphere containing 5% CO2. Lipofectamine™ RNAiMAX and opti-MEM medium were purchased from Invitrogen (San Diego, CA, USA). ABT-263 was obtained from Euromedex and qVD from Clinisciences.

[7] = test system: OMM2,5 metastatic melanoma cells; test: Cell proliferation assay; format: cell-based, human
Description: as §4

primary melanoma cells = test: Cell proliferation assay; format: cell-based, human; details: data not shown
Description: as §4

CC(C)[C@H](NC(=O)c1ccc2ccccc2n1)C(=O)N[C@@H](CC(=O)O)C(=O)COc1c(F)cccc1F [qVD]
effect of qVD on mitochondrial membrane depolarization after ABT-263 [1]: did not prevent it
effect of qVD on mitochondrial membrane depolarization after ABT-263 [2]: prevented mitochondrial membrane depolarization
PARP and caspase cleavage under ABT-263 after QVD pretreatment [3]: prevented PARP and caspase cleavage
effect of qVD on ABT-263 mediated change in ER molecules ([4]; Mel270, QVD-OPh 20 μM): did not impact
effect of qVD on ABT-263 cytotoxicity [5]: protective effect

Cn1cc(-c2ccc3c(c2)CCN3C(=O)Cc2cccc(C(F)(F)F)c2)c2c(N)ncnc21 [GSK2606414]
viable cells, alone (Mel270 cells): no effect
sensitivity of 92.1 cells to ABT-263 with GSK2606414 (92.1 cells): resensitized
CHOP and ATF4 accumulation ([4]; cell line not stated, data not shown): inhibited CHOP and ATF4 accumulation

tunicamycin
CHOP stimulation [6]: able to stimulate CHOP

CC1(C)CCC(CN2CCN(c3ccc(C(=O)NS(=O)(=O)c4ccc(NCC5CCOCC5)c([N+](=O)[O-])c4)c(Oc4cnc5[nH]ccc5c4)c3)CC2)=C(c2ccc(Cl)cc2)C1 [ABT-199]
proliferation inhibition (OMM1 cells; OMM1 cells, data not shown): 15%

CN(C)CC[C@H](CSc1ccccc1)Nc1ccc(S(=O)(=O)NC(=O)c2ccc(N3CCN(Cc4ccccc4-c4ccc(Cl)cc4)CC3)cc2)cc1[N+](=O)[O-] [ABT-737]
proliferation (OMM1 cells; OMM1 metastatic melanoma cells): strongly reduced proliferation
proliferation [7]: strongly reduced proliferation
proliferation, response of primary melanoma cells (primary melanoma cells): highly resistant
